# Data: PubChem BioAssay (NCI)
#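 Exposure lasted 48 hours, with cells grown in 96-well plates and compounds tested at five concentrations. At the TGI there is no net growth.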
# Assays:
# Assay in all cases: DTP human tumour cell line panel, 48 h
# SK-OV-3 ovarian = test system: SK-OV-3 ovarian
# IGROV1 ovarian = test system: IGROV1 ovarian
# SR leukemia = test system: SR leukemia
# A498 renal = test system: A498 renal
# HCT-116 colon = test system: HCT-116 colon
# DMS 114 small cell lung = test system: DMS 114 small cell lung
# UACC-62 melanoma = test system: UACC-62 melanoma
# OVCAR-8 ovarian = test system: OVCAR-8 ovarian
# OVCAR-5 ovarian = test system: OVCAR-5 ovarian
# U251 CNS = test system: U251 CNS
# M19-MEL melanoma = test system: M19-MEL melanoma
# NCI-H23 lung = test system: NCI-H23 lung
# SNB-19 CNS = test system: SNB-19 CNS
# KM12 colon = test system: KM12 colon
# SNB-78 CNS = test system: SNB-78 CNS
# HL-60(TB) leukemia = test system: HL-60(TB) leukemia
# M14 melanoma = test system: M14 melanoma
# NCI-H460 lung = test system: NCI-H460 lung
# HOP-62 NSCLC = test system: HOP-62 NSCLC
# UACC-257 melanoma = test system: UACC-257 melanoma
# ACHN renal = test system: ACHN renal
# HOP-92 NSCLC = test system: HOP-92 NSCLC
# TK-10 renal = test system: TK-10 renal
# SK-MEL-28 melanoma = test system: SK-MEL-28 melanoma
# UO-31 renal = test system: UO-31 renal
# SF-295 CNS = test system: SF-295 CNS
# NCI-H226 lung = test system: NCI-H226 lung
# A549 NSCLC = test system: A549 NSCLC
# RXF 393 renal = test system: RXF 393 renal
# EKVX NSCLC = test system: EKVX NSCLC
# HT29 colon = test system: HT29 colon
# SW-620 colon = test system: SW-620 colon
# COLO 205 colon = test system: COLO 205 colon
# SN12C renal = test system: SN12C renal
# OVCAR-4 ovarian = test system: OVCAR-4 ovarian
# SF-268 CNS = test system: SF-268 CNS
# MOLT-4 leukemia = test system: MOLT-4 leukemia
# CCRF-CEM leukemia = test system: CCRF-CEM leukemia
# SK-MEL-5 melanoma = test system: SK-MEL-5 melanoma
# K-562 leukemia = test system: K-562 leukemia
# NCI/ADR-RES ovarian = test system: NCI/ADR-RES ovarian
# MALME-3M melanoma = test system: MALME-3M melanoma
# NCI-H522 lung = test system: NCI-H522 lung
# BT-549 breast = test system: BT-549 breast
# SK-MEL-2 melanoma = test system: SK-MEL-2 melanoma
# OVCAR-3 ovarian = test system: OVCAR-3 ovarian
# DU-145 prostate = test system: DU-145 prostate
# MCF7 breast = test system: MCF7 breast
# 786-0 renal = test system: 786-0 renal
# HS 578T breast = test system: HS 578T breast
# PC-3 prostate = test system: PC-3 prostate
# HCC-2998 colon = test system: HCC-2998 colon
# CAKI-1 renal = test system: CAKI-1 renal
# HCT-15 colon = test system: HCT-15 colon
# T-47D breast = test system: T-47D breast
# MDA-MB-435 = test system: MDA-MB-435
# SF-539 CNS = test system: SF-539 CNS
# RPMI-8226 leukemia = test system: RPMI-8226 leukemia
# LOX IMVI melanoma = test system: LOX IMVI melanoma
# MDA-MB-231 breast = test system: MDA-MB-231 breast
# MDA-N = test system: MDA-N
# SNB-75 CNS = test system: SNB-75 CNS
structure (smiles),measurement,setting,value
COc1cc(O)c2c(c1C)C(C)(O)c1c(C)coc1C2=O (centres undefined),TGI,SK-OV-3 ovarian,> 100 µM
same,TGI,IGROV1 ovarian,> 100 µM
same,TGI,SR leukemia,> 100 µM
same,TGI,A498 renal,> 100 µM
same,TGI,HCT-116 colon,> 100 µM
same,TGI,DMS 114 small cell lung,> 100 µM
same,TGI,UACC-62 melanoma,> 100 µM
same,TGI,OVCAR-8 ovarian,> 100 µM
same,TGI,OVCAR-5 ovarian,> 100 µM
same,TGI,U251 CNS,> 100 µM
same,TGI,M19-MEL melanoma,> 100 µM
same,TGI,NCI-H23 lung,> 100 µM
same,TGI,SNB-19 CNS,> 100 µM
same,TGI,KM12 colon,> 100 µM
same,TGI,SNB-78 CNS,> 100 µM
same,TGI,HL-60(TB) leukemia,> 100 µM
same,TGI,M14 melanoma,> 100 µM
same,TGI,NCI-H460 lung,> 100 µM
same,TGI,HOP-62 NSCLC,> 100 µM
same,TGI,UACC-257 melanoma,> 100 µM
same,TGI,ACHN renal,> 100 µM
same,TGI,HOP-92 NSCLC,> 100 µM
same,TGI,TK-10 renal,> 100 µM
same,TGI,SK-MEL-28 melanoma,> 100 µM
same,TGI,UO-31 renal,> 100 µM
same,TGI,SF-295 CNS,> 100 µM
same,TGI,NCI-H226 lung,> 100 µM
same,TGI,A549 NSCLC,> 100 µM
same,TGI,RXF 393 renal,> 100 µM
same,TGI,EKVX NSCLC,> 100 µM
same,TGI,HT29 colon,> 100 µM
O=C(CNc1ccc([N+](=O)[O-])cc1)Nn1c(-c2ccccc2)nc2ccccc2c1=O,TGI,SW-620 colon,5.02 µM
same,TGI,COLO 205 colon,5.31 µM
same,TGI,SN12C renal,5.19 µM
same,TGI,SK-OV-3 ovarian,14.9 µM
same,TGI,IGROV1 ovarian,12.9 µM
same,TGI,SR leukemia,> 37.4 µM
same,TGI,A498 renal,19.3 µM
same,TGI,OVCAR-4 ovarian,10.3 µM
same,TGI,HCT-116 colon,13 µM
same,TGI,SF-268 CNS,16.4 µM
same,TGI,MOLT-4 leukemia,10.6 µM
same,TGI,CCRF-CEM leukemia,> 21.6 µM
same,TGI,UACC-62 melanoma,2.19 µM
same,TGI,SK-MEL-5 melanoma,2.61 µM
same,TGI,OVCAR-8 ovarian,18 µM
same,TGI,OVCAR-5 ovarian,16.3 µM
same,TGI,K-562 leukemia,5.52 µM
same,TGI,NCI/ADR-RES ovarian,7.65 µM
same,TGI,MALME-3M melanoma,4.82 µM
same,TGI,NCI-H522 lung,4.79 µM
same,TGI,BT-549 breast,4.25 µM
same,TGI,SK-MEL-2 melanoma,8.37 µM
same,TGI,OVCAR-3 ovarian,20.4 µM
same,TGI,U251 CNS,4.47 µM
same,TGI,NCI-H23 lung,7.13 µM
same,TGI,SNB-19 CNS,23.1 µM
same,TGI,DU-145 prostate,23.3 µM
same,TGI,KM12 colon,15.9 µM
same,TGI,MCF7 breast,7.08 µM
same,TGI,HL-60(TB) leukemia,14 µM
same,TGI,M14 melanoma,8.59 µM
same,TGI,786-0 renal,6.26 µM
same,TGI,NCI-H460 lung,14.3 µM
same,TGI,HOP-62 NSCLC,16.5 µM
same,TGI,UACC-257 melanoma,36.7 µM
same,TGI,HS 578T breast,8.22 µM
same,TGI,PC-3 prostate,13.2 µM
same,TGI,HCC-2998 colon,22.6 µM
same,TGI,CAKI-1 renal,5.15 µM
same,TGI,HCT-15 colon,7.64 µM
same,TGI,T-47D breast,9.63 µM
same,TGI,ACHN renal,14.6 µM
same,TGI,HOP-92 NSCLC,6.66 µM
same,TGI,TK-10 renal,17 µM
same,TGI,MDA-MB-435,14.6 µM
same,TGI,SF-539 CNS,6.61 µM
same,TGI,RPMI-8226 leukemia,14.8 µM
same,TGI,SK-MEL-28 melanoma,10.8 µM
same,TGI,UO-31 renal,14.1 µM
same,TGI,SF-295 CNS,29.8 µM
same,TGI,NCI-H226 lung,25.2 µM
same,TGI,LOX IMVI melanoma,2.23 µM
same,TGI,MDA-MB-231 breast,9.4 µM
same,TGI,MDA-N,13.8 µM
same,TGI,A549 NSCLC,25.8 µM
same,TGI,SNB-75 CNS,11.3 µM
same,TGI,RXF 393 renal,8.84 µM
same,TGI,EKVX NSCLC,28.6 µM
same,TGI,HT29 colon,13.6 µM
C[C@H]1[C@H]2[C@H](C[C@@]3(C)C4=CC[C@H]5C(C)(C)[C@@H](OC6OCC(O)C(O)C6O)CC[C@@]56C[C@@]46CC[C@]23C)O[C@@]2(O)[C@@H]1OC(C)(C)[C@H]2O (some centres undefined),TGI,SW-620 colon,3.74 µM
same,TGI,COLO 205 colon,16.1 µM
same,TGI,SN12C renal,2.75 µM
same,TGI,SK-OV-3 ovarian,4.55 µM
same,TGI,IGROV1 ovarian,1.85 µM
same,TGI,SR leukemia,9.01 µM
same,TGI,A498 renal,4.95 µM
same,TGI,OVCAR-4 ovarian,7.17 µM
same,TGI,HCT-116 colon,4.21 µM
same,TGI,SF-268 CNS,6.35 µM
same,TGI,MOLT-4 leukemia,24.2 µM
same,TGI,CCRF-CEM leukemia,3.24 µM
same,TGI,UACC-62 melanoma,5.32 µM
same,TGI,SK-MEL-5 melanoma,4.71 µM
same,TGI,OVCAR-8 ovarian,1.81 µM
same,TGI,OVCAR-5 ovarian,11.5 µM
same,TGI,K-562 leukemia,50 µM
same,TGI,NCI/ADR-RES ovarian,9.94 µM
same,TGI,MALME-3M melanoma,3.79 µM
same,TGI,NCI-H522 lung,2.42 µM
same,TGI,BT-549 breast,8.78 µM
same,TGI,SK-MEL-2 melanoma,11.5 µM
same,TGI,OVCAR-3 ovarian,9.61 µM
same,TGI,U251 CNS,5.5 µM
same,TGI,NCI-H23 lung,3.31 µM
same,TGI,SNB-19 CNS,8.4 µM
same,TGI,DU-145 prostate,1.91 µM
same,TGI,KM12 colon,4.12 µM
same,TGI,MCF7 breast,1.72 µM
same,TGI,HL-60(TB) leukemia,28.8 µM
same,TGI,M14 melanoma,10.7 µM
same,TGI,786-0 renal,2.76 µM
same,TGI,NCI-H460 lung,7.83 µM
same,TGI,HOP-62 NSCLC,5.7 µM
same,TGI,UACC-257 melanoma,4.7 µM
same,TGI,HS 578T breast,3.7 µM
same,TGI,PC-3 prostate,2.32 µM
same,TGI,HCC-2998 colon,1.45 µM
same,TGI,CAKI-1 renal,5.57 µM
same,TGI,HCT-15 colon,3.43 µM
same,TGI,T-47D breast,1.81 µM
same,TGI,ACHN renal,6.35 µM
same,TGI,HOP-92 NSCLC,3.28 µM
same,TGI,TK-10 renal,3.95 µM
same,TGI,MDA-MB-435,2.17 µM
same,TGI,SF-539 CNS,6.88 µM
same,TGI,RPMI-8226 leukemia,4.68 µM
same,TGI,SK-MEL-28 melanoma,6.23 µM
same,TGI,UO-31 renal,10.2 µM
same,TGI,SF-295 CNS,6.47 µM
same,TGI,NCI-H226 lung,6.73 µM
same,TGI,LOX IMVI melanoma,6.28 µM
same,TGI,MDA-MB-231 breast,6.9 µM
same,TGI,MDA-N,7.48 µM
same,TGI,A549 NSCLC,5.5 µM
same,TGI,SNB-75 CNS,6 µM
same,TGI,RXF 393 renal,3.71 µM
same,TGI,EKVX NSCLC,2.61 µM
same,TGI,HT29 colon,8.97 µM
